# Measured values: patent EP0410762A1, “Naphthyridine derivatives” (DowElanco, priority 1989, dated 1991)
# Key:
# Type in all cases: in vivo
# [1] = system: melon aphids (Aphis gossypii Glover); assay: Mite/insect screen: melon aphids on sprayed squash cotyledons; settings: percent mortality, leaf spray, read-out: MA RESULTS; for mortality at 200 ppm: rate 200 PPM; for mortality at 400 ppm: rate 400 PPM
# [2] = system: Pyricularia oryzae; settings: disease control rating; foliar spray; host rice; 400 ppm (+++ at 100 ppm)
# [3] = system: Twospotted spider mites (Tetranychus urticae Koch); assay: Mite/insect screen: twospotted spider mites on sprayed squash cotyledons; settings: percent mortality, leaf spray, read-out: SM RESULTS; for mortality at 200 ppm: rate 200 PPM; for mortality at 400 ppm: rate 400 PPM
# [4] = system: Pseudoperonospora cubensis; assay: Greenhouse Test 1, foliar spray fungicide screen: downy mildew; settings: disease control rating, host squash, 400 ppm (+++ at 100 ppm)
# [5] = system: southern armyworm (Spodopetra eridania Cramer); assay: Mite/insect screen: southern armyworm on sprayed squash leaves; settings: Spodoptera eridania, percent mortality, leaf spray, read-out: SAW RESULTS; for mortality at 200 ppm: rate 200 PPM; for mortality at 400 ppm: rate 400 PPM
# [6] = system: Botrytis cinerea; assay: Greenhouse Test 1, foliar spray fungicide screen: gray mold; settings: disease control rating, host grape berries, 400 ppm (+++ at 100 ppm)
# [7] = system: Erysiphe graminis tritici; assay: Greenhouse Test 1, foliar spray fungicide screen: powdery mildew; settings: disease control rating, host wheat, 400 ppm (+++ at 100 ppm)
# [8] = system: Puccinia recondita tritici; assay: Greenhouse Test 1, foliar spray fungicide screen: leaf rust; settings: disease control rating, host wheat, 400 ppm (+++ at 100 ppm)
# [9] = system: Southern corn rootworm (Diabrotica undecimpuctata howardi Barber); assay: Mite/insect screen: corn rootworm, treated soil; settings: percent mortality, soil treatment; for mortality at 12 ppm: CRW rate 12.00 PPM; for mortality at 24 ppm: CRW rate 24.00 PPM
# [10] = system: Venturia inaequalis; assay: Greenhouse Test 1, foliar spray fungicide screen: apple scab; settings: disease control rating, host apple seedling, 400 ppm (+++ at 100 ppm)
# [11] = system: Cercospora beticola; assay: Greenhouse Test 1, foliar spray fungicide screen: leaf spot; settings: disease control rating, host sugar beet, 400 ppm (+++ at 100 ppm)
# [12] = system: Septoria tritici; assay: Greenhouse Test 1, foliar spray fungicide screen: leaf blotch; settings: disease control rating, host wheat, 400 ppm (+++ at 100 ppm)
SMILES,mortality at 200 ppm [1] [%],mortality at 400 ppm [1] [%],RICE BLAST [2],mortality at 200 ppm [3] [%],mortality at 400 ppm [3] [%],DOWN MDEW [4],mortality at 200 ppm [5] [%],mortality at 400 ppm [5] [%],GRAY MOLD [6],POWD MDEW [7],LEAF RUST [8],mortality at 12 ppm [9] [%],mortality at 24 ppm [9] [%],APPL SCAB [10],LEAF SPOT [11],LEAF BLOT [12]
"Fc1ccc(Oc2ccnc3ccncc23)cc1 [Example 3, 4-(4-fluorophenoxy)-1,6-naphthyridine]",0,0,- (- = 0-19% control at 400 ppm),0,0,- (- = 0-19% control at 400 ppm),0,0,- (- = 0-19% control at 400 ppm),- (- = 0-19% control at 400 ppm),- (- = 0-19% control at 400 ppm),0,0,–,–,–
"CC(C)(C)c1ccc(CCOc2ccnc3cccnc23)cc1 [Example 5, 4-[2-[4-(t-butyl)phenyl]ethoxy]-1,5-naphthyridine]",50,80,++ (++ = 90-100% control at 400 ppm),100,100,+++ (+++ = 90-100% control at 100 ppm),0,0,- (- = 0-19% control at 400 ppm),+ (+ = 20-89% control at 400 ppm),++ (++ = 90-100% control at 400 ppm),0,0,–,–,–
"CCOc1ccc(CCCOc2ccnc3cccnc23)cc1 [Example 6, 4-[3-(4-ethoxyphenyl)propoxy]-1,5-naphthyridine]",0,0,- (- = 0-19% control at 400 ppm),0,0,- (- = 0-19% control at 400 ppm),0,0,- (- = 0-19% control at 400 ppm),- (- = 0-19% control at 400 ppm),- (- = 0-19% control at 400 ppm),0,0,–,–,–
"CC(C)(C)c1ccc(CCNc2ccnc3cccnc23)cc1 [Example 7, N-[2-[4-(t-butyl)phenyl]ethyl]-1,5-naphthyridin-4-amine]",90,100,++ (++ = 90-100% control at 400 ppm),90,100,+++ (+++ = 90-100% control at 100 ppm),0,0,- (- = 0-19% control at 400 ppm),++ (++ = 90-100% control at 400 ppm),+++ (+++ = 90-100% control at 100 ppm),0,0,–,–,–
"Fc1ccc(Oc2ccnc3ncccc23)cc1 [Example 1, 4-(4-fluorophenoxy)-1,8-naphthyridine]",0,0,- (- = 0-19% control at 400 ppm),0,0,++ (++ = 90-100% control at 400 ppm),0,0,- (- = 0-19% control at 400 ppm),+ (+ = 20-89% control at 400 ppm),++ (++ = 90-100% control at 400 ppm),0,0,–,–,–
"Clc1ccccc1Oc1ccnc2ncccc12 [Example 8, 4-(2-chlorophenoxy)-1,8-naphthyridine]",0,0,+ (+ = 20-89% control at 400 ppm),0,0,++ (++ = 90-100% control at 400 ppm),0,0,- (- = 0-19% control at 400 ppm),- (- = 0-19% control at 400 ppm),+ (+ = 20-89% control at 400 ppm),0,0,–,–,–
"Fc1ccc(Oc2ccnc3cccnc23)cc1 [Example 4, 4-(4-fluorophenoxy)-1,5-naphthyridine]",–,80,+ (+ = 20-89% control at 400 ppm),–,80,++ (++ = 90-100% control at 400 ppm),–,0,- (- = 0-19% control at 400 ppm),+ (+ = 20-89% control at 400 ppm),+ (+ = 20-89% control at 400 ppm),–,0,–,–,–
"Fc1ccc(Oc2ccnc3cnccc23)cc1 [Example 2, 4-(4-fluorophenoxy)-1,7-naphthyridine]",30,0,- (- = 0-19% control at 400 ppm),40,0,+ (+ = 20-89% control at 400 ppm),0,0,- (- = 0-19% control at 400 ppm),+ (+ = 20-89% control at 400 ppm),+ (+ = 20-89% control at 400 ppm),0,0,–,–,–
"CCOc1ccc(CCOc2ccnc3cccnc23)cc1 [Example 9, 4-[2-(4-ethoxyphenyl)ethoxy]-1,5-naphthyridine]",100,100,++ (++ = 90-100% control at 400 ppm),40,80,++ (++ = 90-100% control at 400 ppm),0,0,- (- = 0-19% control at 400 ppm),+ (+ = 20-89% control at 400 ppm),+++ (+++ = 90-100% control at 100 ppm),0,0,–,–,–
"c1ccc(CCNc2ccnc3cccnc23)cc1 [Example 10, N-(2-phenylethyl)-1,5-naphthyridin-4-amine]",0,–,+ (+ = 20-89% control at 400 ppm),0,–,+++ (+++ = 90-100% control at 100 ppm),0,–,- (- = 0-19% control at 400 ppm),+ (+ = 20-89% control at 400 ppm),+ (+ = 20-89% control at 400 ppm),0,–,+ (+ = 20-89% control at 400 ppm),+ (+ = 20-89% control at 400 ppm),- (- = 0-19% control at 400 ppm)
